“Also recorded” adds a separate entry of the source.

Five molecules from patent publication US8961937B2 (Korea Atomic Energy Research Institute, priority 2012, dated 2015) can be followed below.

The target in series [1] is T1, intracellular Aβ aggregates of a SHSY5Y neuroblastoma cell (Homo sapiens, UniProt P05067).
T1 construct: a cell having unlabelled Aβ42 added thereto was sonicated with SDS; host or cells: exogenous peptide added to the SHSY5Y neuroblastoma cell culture
Put plainly: Fluorescence imaging of intracellular Aβ aggregates in SHSY5Y cell extract. Format: cell-based. To be noted: for fluorescent staining of extract of Aβ42-added SHSY5Y cells: cell cultured with unlabelled Aβ42, sonicated with SDS, homogenate reacted with 10 μM probe for 10 minutes; for fluorescent staining of extract of SHSY5Y cells grown without Aβ: culture without Aβ42 (negative control tissue). The method, then: Fluorescence imaging of compound 14 was performed on intracellular Aβ aggregates of a SHSY5Y neuroblastoma cell. In order to measure intracellular uptake and aggregation of Aβ, 1 μM of Aβ42 (FITC-Aβ42) labelled with fluorescein isothiocyanate was added, and SHSY5Y cell was cultivated 3 days and imaged with fluorescence microscope. […] The conventional research reported that, after extracellular soluble Aβ is taken up, Aβ42 aggregates (>200 kDa) having a high molecular weight is formed. In order to determine whether the compound 14 is used as a fluorescence probe component for detecting intracellular Aβ aggregates, a cell having unlabelled Aβ42 added thereto was sonicated with SDS, and the homogenate was reacted with 10 μM of compound 14 for 10 minutes.

Series [2] has as its target T2, Aβ40 aggregates (Homo sapiens, UniProt P05067).
T2 construct: agglomerated Aβ40 peptide (10 μM, 35° C., agglomerated in PBS buffer for 3 days.)
The series is described as follows: Apparent binding constant (Kd) by fluorescence titration with aggregated Aβ40 peptide. As to conditions: 10 μM aggregated Aβ40 peptide, PBS, N = 3; read-out: Kd (mean ± SD). The procedure: Apparent binding constants (Kd) of the nine compounds were measured by using 10 μM aggregated Aβ40 peptide. Fluorescence intensity of respective probes of […], 0.5, 1, […], 5, and 10 μM dissolved in PBS and fluorescence intensity of a mixture with aggregates Aβ peptide were measured. […] Theoretically, a preferable fluorescence probe for Aβ aggregates should have high fluorescence reactivity and binding affinity.

Series [3] deals with T2, Aβ40 aggregates. Put plainly: In vitro fluorescence measurement before and after mixing with agglomerated Aβ40 peptide. Format: binding. To be noted: for λem: emission wavelength; for λem / λex: 10 μM in PBS; for λex: excitation wavelength; for Fold Increase (FAβ/F0): fluorescence emission intensity at λem, 10 μM compound and 10 μM Aβ40 aggregates.
Series [4] relates to Aβ aggregates of brain tissues of an AD mouse. Put plainly: Fluorescence staining of brain sections of transgenic AD mouse (APP/PS1). As to conditions: for staining of Aβ aggregates in brain section of transgenic AD mouse: 15-month aged APP/PS1 mouse brain section; for staining of brain tissue of control group mouse: control group mouse brain section. The method, then: In order to evaluate whether 2-styrylpyridazine-3(2H)-one-based compound 14 can stain beta amyloid aggregates of brain tissues of an AD mouse, compound 14 was tested in a brain section of an 15-month aged transgenic AD mouse (APP/PS 1) model.

T1 sequence (P05067 672-713 limits assumed): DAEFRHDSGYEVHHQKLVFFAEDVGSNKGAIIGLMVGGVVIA
T2 sequence (P05067 672-711 limits assumed): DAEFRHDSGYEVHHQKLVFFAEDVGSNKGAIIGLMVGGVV

As to `CN(C)c1ccc(/C=C/n2ncc(Cl)c(Cl)c2=O)cc1` [Compound 14], in series [1], the “fluorescent staining of extract of Aβ42-added SHSY5Y cells” value is reported as “Fluorescence precipitate was obtained; also recorded: clearly stained” and the “fluorescent staining of extract of SHSY5Y cells grown without Aβ” value was “did not have fluorescent staining”. For the same molecule, the Kd at Aβ40 aggregates [2] is 1.84 µM. Further, on Aβ40 aggregates [3], the λem turned out to be 636 nm, the λex is 430 nm and the “Fold Increase (FAβ/F0)” value worked out at 40.84. In series [4], the “staining of Aβ aggregates in brain section of transgenic AD mouse” value is on record as “clearly stained” and the “staining of brain tissue of control group mouse” value is “not stained”.

For `COc1ccc(/C=C/n2ncc(Cl)c(Cl)c2=O)c(OC)c1OC` [Compound 25, (E)-4,5-dichloro-2-(2,3,4-trimethoxystyryl)pyridazine-3(2H)-one], at Aβ40 aggregates [2], the Kd amounted to 4.24 ± 0.98 µM. Besides, at Aβ40 aggregates [3], the λem turned out to be 536 nm, the λex is reported as 390 nm and the “Fold Increase (FAβ/F0)” value is recorded as 26.81.

Consider `COc1cc(OC)c(/C=C/n2ncc(Cl)c(Cl)c2=O)c(OC)c1` [Compound 27, (E)-4,5-dichloro-2-(2,4,6-trimethoxystyryl)pyridazine-3(2H)-one], for which the Kd on Aβ40 aggregates [2] came out at 17.5 ± 2.49 µM. For the same molecule, at Aβ40 aggregates [3], the λem was 560 nm, the λex came out at 430 nm and the “Fold Increase (FAβ/F0)” value amounted to 11.72.

Turning to `COc1cc(/C=C/n2ncc(Cl)c(Cl)c2=O)cc(OC)c1OC` [Compound 28], the Kd at Aβ40 aggregates [2] is 4.14 ± 1.94 µM. On Aβ40 aggregates [3], the λem was 580 nm, the λex was determined as 390 nm and the “Fold Increase (FAβ/F0)” value came to 26.12.

As for `Cc1ccc2c(c1)sc(-c1ccc(N(C)C)cc1)[n+]2C.[Cl-]` [thio-flavine T, reference compound], in series [1], the “fluorescent staining of extract of Aβ42-added SHSY5Y cells” value is given as “labelled pattern was identical to a pattern observed by using thio-flavine T” and the “fluorescent staining of extract of SHSY5Y cells grown without Aβ” value is on record as “did not have fluorescent staining”. Also, in series [4], the “staining of Aβ aggregates in brain section of transgenic AD mouse” value was “stained” and the “staining of brain tissue of control group mouse” value was “not stained”.
